18 compounds from ChEMBL document CHEMBL1141036, “2-Alkyl-3-(1,2,3,6-tetrahydropyridin-4-yl)-1H-indoles as novel 5-HT6 receptor agonists” (Bioorg Med Chem Lett, 2005) can be followed below.

The target of assay [1] is T1, 5-hydroxytryptamine receptor 6 (Homo sapiens, UniProt P50406). Kind of assay: Displacement of [3H]LSD binding to cloned human 5-hydroxytryptamine 6 receptor expressed in HEK cells. In kind it is cell-based, HEK293. In general terms: In a radioligand displacement assay an active substance lowers the binding of a labelled ligand.
The target of assay [2] is 5-hydroxytryptamine receptor 1B (Rattus norvegicus, UniProt P28564). Kind of assay: Inhibitory activity against 5-hydroxytryptamine 1B receptor in rat.
Assay [3] has as its target 5-hydroxytryptamine receptor 3A (Mus musculus) (UniProt P23979). Kind of assay: Inhibitory activity against 5-hydroxytryptamine 3 receptor expressed in NG 108 cells.
The nature of assay [4]: Concentration to stimulate the cAMP production in BHK cells. It counts as functional, cell-based. The following applies: Homo sapiens.
The target in assay [5] is 5-hydroxytryptamine receptor 2A (Homo sapiens, UniProt P28223). The assay is described as follows: Inhibitory activity against 5-hydroxytryptamine 2A receptor in human.
In assay [6] the target is T2, 5-hydroxytryptamine receptor 1A (Rattus norvegicus, UniProt P19327).
T2 sequence (P19327 whole entry): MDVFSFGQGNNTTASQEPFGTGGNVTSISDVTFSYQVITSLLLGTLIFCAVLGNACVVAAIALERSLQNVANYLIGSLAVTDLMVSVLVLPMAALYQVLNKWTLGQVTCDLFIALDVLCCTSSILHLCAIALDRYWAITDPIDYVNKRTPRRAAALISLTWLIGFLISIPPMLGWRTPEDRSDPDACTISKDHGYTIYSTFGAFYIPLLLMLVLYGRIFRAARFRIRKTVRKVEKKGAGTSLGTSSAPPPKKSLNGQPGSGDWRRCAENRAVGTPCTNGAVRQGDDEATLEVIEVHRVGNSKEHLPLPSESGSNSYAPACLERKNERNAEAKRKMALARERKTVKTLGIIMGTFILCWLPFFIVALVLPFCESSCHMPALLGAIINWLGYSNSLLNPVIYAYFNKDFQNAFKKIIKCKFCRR
Kind of assay: Inhibitory activity against 5-hydroxytryptamine 1A receptor in rat.

The target in assay [7] is 5-hydroxytryptamine receptor 7 (Homo sapiens, UniProt P34969). Kind of assay: Inhibitory activity against 5-hydroxytryptamine 7 receptor in human.
The target in assay [8] is T1, 5-hydroxytryptamine receptor 6. Kind of assay: Intrinsic activity (IA) at the 5-HT6 receptor determined by measuring their cAMP production in BHK cells and compared to the effect elicited by 5-HT. It counts as functional, cell-based. The following applies: Mesocricetus auratus. (Changes in cAMP serve as a functional read-out for many G protein-coupled receptors.)
Assay [9] has as its target 5-hydroxytryptamine receptor 4 (Cavia porcellus, UniProt O70528). The assay is described as follows: Inhibitory activity against 5-hydroxytryptamine 4 receptor in guinea pig.
Assay [10] addresses T3, 5-hydroxytryptamine receptor 2C (Homo sapiens, UniProt P28335).
T3 sequence (P28335 whole entry): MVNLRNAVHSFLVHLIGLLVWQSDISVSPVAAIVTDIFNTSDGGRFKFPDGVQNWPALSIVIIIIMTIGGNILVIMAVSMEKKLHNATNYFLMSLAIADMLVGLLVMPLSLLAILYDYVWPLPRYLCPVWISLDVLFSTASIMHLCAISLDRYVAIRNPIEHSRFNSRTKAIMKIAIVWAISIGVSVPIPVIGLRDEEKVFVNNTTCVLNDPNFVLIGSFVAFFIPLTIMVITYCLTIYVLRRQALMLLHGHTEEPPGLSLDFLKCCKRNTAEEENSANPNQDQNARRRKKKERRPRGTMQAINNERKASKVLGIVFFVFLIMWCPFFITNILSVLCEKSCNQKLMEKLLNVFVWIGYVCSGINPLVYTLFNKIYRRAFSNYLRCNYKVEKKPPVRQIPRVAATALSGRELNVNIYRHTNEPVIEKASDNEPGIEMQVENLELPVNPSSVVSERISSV
The assay is described as follows: Inhibitory activity against 5-hydroxytryptamine 2C receptor in human.

Assay [11] concerns the target T1, 5-hydroxytryptamine receptor 6. The assay is described as follows: Displacement of [3H]LSD binding to cloned human 5-hydroxytryptamine 6 receptor stably expressed in HEK cells. In kind it is cell-based, HEK293.
Assay [12] shares this target. The assay is described as follows: Inhibitory activity against 5-hydroxytryptamine 6 receptor in human.
Assay [13] shares this target. The assay is described as follows: Displacement of [3H]LSD binding to cloned h5-HT6 receptors stably expressed in HEK cells. It counts as cell-based, HEK293.

Each structure is given as a SMILES string.

T1 sequence (P50406 whole entry): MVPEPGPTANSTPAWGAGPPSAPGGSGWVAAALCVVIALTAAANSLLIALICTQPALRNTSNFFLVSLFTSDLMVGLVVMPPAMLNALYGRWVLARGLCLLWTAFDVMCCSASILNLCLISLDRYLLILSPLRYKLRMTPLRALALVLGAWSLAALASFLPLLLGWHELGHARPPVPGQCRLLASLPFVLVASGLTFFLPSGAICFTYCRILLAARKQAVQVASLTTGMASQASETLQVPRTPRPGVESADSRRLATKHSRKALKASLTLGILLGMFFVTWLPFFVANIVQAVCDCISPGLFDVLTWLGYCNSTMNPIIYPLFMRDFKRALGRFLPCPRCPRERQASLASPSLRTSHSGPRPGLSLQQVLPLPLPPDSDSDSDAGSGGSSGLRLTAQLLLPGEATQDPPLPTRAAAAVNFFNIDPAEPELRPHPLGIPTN
5-hydroxytryptamine receptor 3A (Mus musculus), sequence (P23979 whole entry, looked up): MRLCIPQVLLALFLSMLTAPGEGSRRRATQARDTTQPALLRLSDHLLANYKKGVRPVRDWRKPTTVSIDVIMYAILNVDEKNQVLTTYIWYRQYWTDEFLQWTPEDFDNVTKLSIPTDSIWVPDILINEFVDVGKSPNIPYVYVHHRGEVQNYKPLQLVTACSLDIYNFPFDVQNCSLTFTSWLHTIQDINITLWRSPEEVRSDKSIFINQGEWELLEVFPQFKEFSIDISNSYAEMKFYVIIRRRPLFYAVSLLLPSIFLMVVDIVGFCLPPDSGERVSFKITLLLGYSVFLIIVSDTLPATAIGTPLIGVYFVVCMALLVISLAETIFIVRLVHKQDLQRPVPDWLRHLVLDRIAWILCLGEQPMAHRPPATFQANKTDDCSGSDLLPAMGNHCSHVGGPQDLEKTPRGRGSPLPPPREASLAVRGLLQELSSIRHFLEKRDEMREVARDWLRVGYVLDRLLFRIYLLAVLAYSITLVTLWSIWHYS
5-hydroxytryptamine receptor 7, sequence (P34969 whole entry): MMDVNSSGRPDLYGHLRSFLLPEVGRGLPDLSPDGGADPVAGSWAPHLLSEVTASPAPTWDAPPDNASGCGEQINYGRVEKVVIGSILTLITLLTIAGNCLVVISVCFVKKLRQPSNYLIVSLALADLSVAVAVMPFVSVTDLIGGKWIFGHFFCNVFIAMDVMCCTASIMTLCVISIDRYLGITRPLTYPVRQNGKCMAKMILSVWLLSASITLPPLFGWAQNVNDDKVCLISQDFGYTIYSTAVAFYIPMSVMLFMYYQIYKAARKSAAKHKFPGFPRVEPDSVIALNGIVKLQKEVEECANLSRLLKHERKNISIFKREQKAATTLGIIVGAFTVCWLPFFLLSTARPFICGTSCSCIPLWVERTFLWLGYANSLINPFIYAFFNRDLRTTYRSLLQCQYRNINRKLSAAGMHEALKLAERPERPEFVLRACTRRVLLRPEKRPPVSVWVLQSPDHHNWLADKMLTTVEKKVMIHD
5-hydroxytryptamine receptor 1B, sequence (P28564 whole entry): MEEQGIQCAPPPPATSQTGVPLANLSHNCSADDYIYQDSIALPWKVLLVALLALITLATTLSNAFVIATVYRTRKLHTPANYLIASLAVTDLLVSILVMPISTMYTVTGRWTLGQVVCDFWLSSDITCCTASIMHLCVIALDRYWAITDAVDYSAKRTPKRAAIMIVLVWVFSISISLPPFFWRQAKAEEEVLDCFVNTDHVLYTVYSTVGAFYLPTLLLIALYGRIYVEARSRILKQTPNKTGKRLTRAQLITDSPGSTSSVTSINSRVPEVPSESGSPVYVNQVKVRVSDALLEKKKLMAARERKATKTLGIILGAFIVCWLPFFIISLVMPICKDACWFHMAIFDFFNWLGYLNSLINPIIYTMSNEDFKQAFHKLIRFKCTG
5-hydroxytryptamine receptor 4, sequence (O70528 whole entry): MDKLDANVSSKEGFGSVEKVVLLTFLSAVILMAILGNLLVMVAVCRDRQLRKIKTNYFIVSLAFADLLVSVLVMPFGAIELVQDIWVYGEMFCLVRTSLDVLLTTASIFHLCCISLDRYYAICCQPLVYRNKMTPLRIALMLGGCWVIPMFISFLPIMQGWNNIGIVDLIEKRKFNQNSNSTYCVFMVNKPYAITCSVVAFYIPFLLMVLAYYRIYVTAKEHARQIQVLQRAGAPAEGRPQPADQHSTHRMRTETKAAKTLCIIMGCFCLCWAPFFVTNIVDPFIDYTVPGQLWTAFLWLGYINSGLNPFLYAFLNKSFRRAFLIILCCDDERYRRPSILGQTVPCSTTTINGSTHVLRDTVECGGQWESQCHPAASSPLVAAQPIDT
5-hydroxytryptamine receptor 2A, sequence (P28223 whole entry): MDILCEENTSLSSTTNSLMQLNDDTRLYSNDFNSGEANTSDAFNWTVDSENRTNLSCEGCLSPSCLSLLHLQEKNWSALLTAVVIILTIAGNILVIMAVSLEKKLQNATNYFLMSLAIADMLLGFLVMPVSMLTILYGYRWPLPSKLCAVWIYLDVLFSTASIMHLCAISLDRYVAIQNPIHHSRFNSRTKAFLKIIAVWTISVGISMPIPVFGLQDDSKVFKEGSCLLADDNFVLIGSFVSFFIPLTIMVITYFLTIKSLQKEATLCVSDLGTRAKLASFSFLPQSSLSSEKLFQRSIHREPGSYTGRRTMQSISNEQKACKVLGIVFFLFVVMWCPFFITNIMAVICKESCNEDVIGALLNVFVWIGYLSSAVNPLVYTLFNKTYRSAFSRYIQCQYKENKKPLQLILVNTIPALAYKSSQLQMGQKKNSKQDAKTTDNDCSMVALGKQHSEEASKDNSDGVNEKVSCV

With `CCCc1[nH]c2ccc(Cl)cc2c1C1=CCNCC1`, in assay [1], the IC50 – broadly, the concentration that gives 50% inhibition – stood at 40 nM. This counts as double-digit nanomolar.
As for `CC(C)c1[nH]c2ccc(Cl)cc2c1C1=CCNCC1`, the IC50 in [1] amounted to 100 nM.
Regarding `Cc1[nH]c2ccc(Cl)cc2c1C1=CCNCC1`, the IC50 in [2] came to 180 nM; in assay [3] it was 34 nM; in assay [5], 240 nM; in assay [6], 660 nM; in assay [7], 3000 nM; in assay [9] it was 620 nM. The same compound came in with an IC50 in assay [10] of 450 nM. Also, a half-maximal response in [4] (EC50) required 1 nM. Moreover, the IA in assay [8] was determined as 92%.
Regarding `Cc1[nH]c2ccc(Cl)cc2c1C1=CCN(C)CC1`, a half-maximal effect in assay [4] (EC50) was put at 2.9 nM. In addition, in [1], the IC50 amounted to 10 nM. In addition, the IA in assay [8] stood at 152%.
`Cc1[nH]c2ccc(Cl)cc2c1C1=CCN(Cc2ccccc2)CC1` showed an IC50 in assay [1] of 600 nM.
In assay [1], `CCc1[nH]c2ccc(Cl)cc2c1C1=CCN(CC)CC1` registered a half-maximal inhibitory concentration (IC50) of 70 nM.
In the case of `CCc1[nH]c2ccc(OC)cc2c1CCN(C)C`, the IC50 in assay [2] is over 1000 nM; in assay [3], over 1000 nM; in assay [11], 85 nM; in assay [5], 620 nM; in assay [6], over 1000 nM; in assay [7] it was 1500 nM. For the same compound, the figures for the IC50 in assay [12] and in assay [9] were 85 nM and 44 nM, respectively. For the same compound, the EC50 (as a rule, the concentration that produces a half-maximal response) in [4] was determined as 710 nM. Moreover, the IA in [8] is 113%.
`CCN1CC=C(c2c(C)[nH]c3ccc(Cl)cc23)CC1` gave an IC50 in assay [1] of 30 nM. In other words, the double-digit nanomolar range.
The same measure, in the same setting: under `CCCN1CC=C(c2c(C)[nH]c3ccc(Cl)cc23)CC1` stands 60 nM.
Consider `COc1ccc2[nH]cc(C3=CCNCC3)c2c1` [RU-24969], for which the midpoint of the response in assay [4], the EC50, lay at 200 nM. In assay [1], this compound displayed an IC50 of 79 nM. The compound also yielded an IA in assay [8] of 55%.
For the compound `COc1ccc2[nH]c(C)c(C3=CCNCC3)c2c1`, the IC50 in [2] is 310 nM; in assay [3] it was over 1000 nM; in assay [1] it was 80 nM; in assay [5], over 1000 nM; in assay [6], 430 nM; in [7] it was 9800 nM. The IC50 was 80 nM in assay [12], 9800 nM in assay [9] and over 1000 nM in assay [10]. The EC50 in assay [4] amounted to 5.8 nM. The compound further registered an IA in assay [8] of 100%.
Compound `C1=C(c2c(-c3ccccc3)[nH]c3ccccc23)CCNC1` gave an IC50 in assay [1] of 2 nM.
In [4], `Cc1[nH]c2ccc(Cl)cc2c1CCN(C)C` showed an EC50 of 16 nM. This compound also gave an IC50 in assay [1] of 40 nM. Further, the IA in assay [8] amounted to 53%.
For the compound `CCc1[nH]c2ccc(OC)cc2c1C1CCNCC1`, the IC50 in [13] is 300 nM.
On to `CCc1[nH]c2ccc(Cl)cc2c1C1=CCNCC1`, for which the IC50 in assay [1] was 30 nM.
For `CCc1[nH]c2ccc(OC)cc2c1C1=CCNCC1`, the EC50 in assay [4] turned out to be 7.9 nM. Moreover, the IC50 in assay [13] is 90 nM. The compound further yielded an IA in [8] of 100%.
Regarding `Cc1[nH]c2ccc(Cl)cc2c1C1=CC2CCC(C1)N2C` (stereo not given), in [4], the midpoint of the response, the EC50, lay at 10000 nM. The compound further yielded an IC50 in assay [1] of 40 nM. Moreover, the IA in assay [8] is 75%.
In assay [1], `CCCCN1CC=C(c2c(C)[nH]c3ccc(Cl)cc23)CC1` returned an IC50 of 50 nM.
